Results: the Kinase Knowledgebase extract (Sharma et al. 2016)

Target: PIK3CD (Human) (UniProt O00329)
Assay: Assessment of PIK3CD Kinase Activity

Chain of PIK3CD (Human) (O00329 whole entry, looked up): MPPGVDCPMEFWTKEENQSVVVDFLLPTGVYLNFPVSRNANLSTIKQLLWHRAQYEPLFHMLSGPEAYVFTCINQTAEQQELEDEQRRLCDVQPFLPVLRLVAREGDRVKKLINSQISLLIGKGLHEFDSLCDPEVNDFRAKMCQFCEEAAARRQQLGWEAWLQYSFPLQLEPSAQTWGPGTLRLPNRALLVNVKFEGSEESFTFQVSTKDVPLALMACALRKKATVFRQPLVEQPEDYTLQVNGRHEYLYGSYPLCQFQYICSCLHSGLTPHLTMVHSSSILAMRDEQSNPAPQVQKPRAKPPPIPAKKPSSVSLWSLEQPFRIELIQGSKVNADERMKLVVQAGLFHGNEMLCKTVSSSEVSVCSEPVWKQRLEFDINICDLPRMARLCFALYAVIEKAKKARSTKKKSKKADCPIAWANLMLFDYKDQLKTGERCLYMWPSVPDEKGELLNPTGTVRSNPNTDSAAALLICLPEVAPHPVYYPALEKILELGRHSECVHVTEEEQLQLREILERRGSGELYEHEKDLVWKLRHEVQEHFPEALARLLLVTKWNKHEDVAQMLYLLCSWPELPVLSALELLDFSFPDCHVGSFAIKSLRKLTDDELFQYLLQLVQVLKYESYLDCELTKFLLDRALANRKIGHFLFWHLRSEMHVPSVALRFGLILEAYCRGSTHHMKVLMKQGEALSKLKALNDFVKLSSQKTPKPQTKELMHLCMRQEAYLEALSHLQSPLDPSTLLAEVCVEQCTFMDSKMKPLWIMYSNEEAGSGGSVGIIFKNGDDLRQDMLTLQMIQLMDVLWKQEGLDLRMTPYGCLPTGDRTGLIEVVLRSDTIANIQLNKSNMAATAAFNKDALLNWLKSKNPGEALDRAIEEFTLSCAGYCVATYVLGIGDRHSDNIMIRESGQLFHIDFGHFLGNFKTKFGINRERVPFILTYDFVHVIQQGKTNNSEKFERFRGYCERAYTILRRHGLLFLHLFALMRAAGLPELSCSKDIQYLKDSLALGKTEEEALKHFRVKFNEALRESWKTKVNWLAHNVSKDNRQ

Row | SMILES | IC50 [µM]
1 | c1cc(-c2nc(N3CCOCC3)c3cc(CN4CC5(CCNCC5)C4)ccc3n2)c2cc[nH]c2c1 | < 0.5
2 | c1cc(-c2nc(N3CCOCC3)c3cc(CN4CC5CNCC5C4)ccc3n2)c2cc[nH]c2c1 (configuration not stated) | < 0.5
3 | Fc1ccc2[nH]ccc2c1-c1nc(N2CCOCC2)c2cc(CN3C[C@@H]4C[C@H]3CN4)ccc2n1 | < 0.5
4 | CN1CCC(N(C)Cc2ccc3nc(-c4cccc5[nH]ccc45)nc(N4CCOCC4)c3c2)CC1 | < 0.5
5 | c1cc(-c2nc(N3CCOCC3)c3cc(CN4CC5CCC(C4)N5)ccc3n2)c2cc[nH]c2c1 | < 0.5
6 | C[C@@H]1CN(Cc2ccc3nc(-c4cccc5[nH]ccc45)nc(N4CCOCC4)c3c2)C[C@H](C)N1 | < 0.5

Results, then the compound that gave them:

Row | IC50 [µM] | SMILES
7 | < 0.5 | Fc1cc(-c2nc(N3CCOCC3)c3cc(CN4CCC(N5CCOCC5)CC4)ccc3n2)c2cc[nH]c2c1
8 | < 0.5 | CN1CCC(N(C)Cc2ccc3nc(-c4cc(F)cc5[nH]ccc45)nc(N4CCOCC4)c3c2)CC1
9 | < 0.5 | OCCN1CCN(Cc2ccc3nc(-c4cccc5[nH]ccc45)nc(N4CCOCC4)c3c2)CC1
10 | < 0.5 | CN1CCN(Cc2ccc3nc(-c4cccc5[nH]ccc45)nc(N4CCOCC4)c3c2)CC1
11 | < 0.5 | c1cc(-c2nc(N3CCOCC3)c3cc(CN4CCC(N5CCOCC5)CC4)ccc3n2)c2cc[nH]c2c1
12 | < 0.5 | c1cc(-c2nc(N3CCOCC3)c3cc(CN4CCN5CCC[C@H]5C4)ccc3n2)c2cc[nH]c2c1
